Laboratory results reported in BindingDB's records for doi:10.1016/j.ejmech.2020.112994 (North-West University, 2021).

Assay: Inhibition of EGFR in human A-431 cells assessed as antiproliferative activity incubated for 48 hrs by MTS method

- IC50: 1640 nM
SMILES: COc1cc2c(Nc3ccc(Br)cc3F)ncnc2cc1OCC1CCN(C(=O)Cn2cncc2[N+](=O)[O-])CC1
